{"source": "patent US11413348B2", "about": "“Low molecular weight cationic lipids for oligonucleotide delivery” (SIRNA THERAPEUTICS, INC., priority 2010, dated 2022)", "data": [{"biological_target": "T1, serum ApoE (Macaca mulatta, UniProt Q28502)", "T1 construct": "from tissue; host or cells: rhesus monkey serum", "T1 sequence (Q28502 19-295)": "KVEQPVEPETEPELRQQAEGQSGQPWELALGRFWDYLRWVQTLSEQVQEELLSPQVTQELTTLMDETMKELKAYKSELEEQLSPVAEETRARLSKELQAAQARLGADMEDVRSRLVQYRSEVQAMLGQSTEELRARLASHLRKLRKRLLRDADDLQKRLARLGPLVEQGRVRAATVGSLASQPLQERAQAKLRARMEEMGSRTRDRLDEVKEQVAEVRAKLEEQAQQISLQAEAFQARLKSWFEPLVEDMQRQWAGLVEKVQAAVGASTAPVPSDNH", "test": "Heparin Sepharose HI-TRAP binding assay", "design": "species or system rhesus monkey", "settings": "HI-TRAP binding upon rhesus serum incubation, 2×DPBS conditions", "method": "Lipid nanoparticles (LNP) with neutral surface charge are not retained after injection onto heparin sepharose with 1× Dulbecco's phosphate buffered saline (DPBS) as the running buffer but elute in the column void volume. […] Lipid nanoparticles with surface bound ApoE bind to heparin sepharose with high affinity and are eluted only at high salt (1M NaCl).\nLipid nanoparticles were incubated at 37° C. for 20 min at a final siRNA concentration of 50 μg/mL with various concentrations of either purified or recombinant human apolipoprotein E or 0.1-50% rat/mouse/rhesus monkey/human serum in 1× Dulbccco's phosphate buffered saline (DPBS). After incubation with ApoE or serum LNP samples were diluted 10-fold using 1×DPBS and analyzed by heparin sepharose chromatography. Peak area of retained LNP (after subtraction of appropriate blank signals) is compared to total peak area of LNP control without ApoE and/or serum incubation to determine the percentage of the LNP which undergoes shift to high affinity heparin interaction after incubation with ApoE/serum.\nA heparin sepharose HI-TRAP™ chromatography column (GE Healthcare; 1 mL bed volume) is equilibrated with either 1× or 2× Dulbecco's PBS; the higher 2× salt concentration is used for LNPs with higher intrinsic retention on heparin sepharose (presumably due to higher positive surface charge). • Mobile Phase A: 1× or 2×DPBS • Mobile Phase B: 1M NaCl in 10 mM sodium phosphate buffer, pH 7.0 • 100% A delivered isocratically for 10 min followed by step gradient to 100% B; hold for additional 10 min; step gradient back to 100% A and reequilibrate for additional 10 min prior to injection of next sample • Flow rate: 1 mL/min • Sample injection volume: 50 μL. • Detection: UV @260 nm HI-TRAP™ Binding Results Upon Rhesus Serum Incubation (2×DPBS Conditions)", "units": {"% Bound": "%"}, "values": [{"compound": "CCCCC/C=C\\C/C=C\\CCCCCCCCC1(CCCCCCCC/C=C\\C/C=C\\CCCCC)OCC(CCN(C)C)O1", "note": "(centres unmarked) [Compound 45, DLinKC2DMA, reference compound]", "% Bound": 58}, {"compound": "CCCCC/C=C\\C/C=C\\CCCCCCCCC(CCCCCCCC/C=C\\C/C=C\\CCCCC)OC(=O)CCCN(C)C", "note": "[Compound 46, MC3, reference compound]", "% Bound": 7}]}, {"biological_target": "T2, ApoE (Macaca mulatta, UniProt Q28502)", "T2 construct": "from tissue; host or cells: rhesus serum", "T2 sequence (Q28502 19-295)": "as above", "test": "In vitro ApoE binding assay (anti-PEG capture, ApoE ELISA, stem-loop RT-PCR)", "settings": "LNP 4 ug/mL in 90% rhesus serum, 37° C., 20 minutes; estimate of 500 siRNA per LNP", "method": "LNPs are incubated at 37° C. in 90% rhesus serum at a final LNP concentration of 4 ug/mL. Incubation is for 20 minutes with orbital rotation. After incubation, the samples are diluted 1:20 in PBS and 100 uL of each diluted sample is aliquoted to wells of an anti-PEG antibody coated 96-well plate (Life Diagnostics Cat. No. P-0001PL. After incubation at room temperature for 1 hour, the plate is washed 5× with 300 uL PBS. After washing, 50 uL of 0.2% Triton X-100 is added to each well and the plate incubated at 37° C. for 10 minutes, followed by shaking on a plate shaker for 1 minute at 750 rpm. Samples are frozen prior to performing the ApoE ELISA and stem loop PCR analysis of samples.\nAn ApoE ELISA assay is performed to quantitate ApoE bound to the LNPs after incubation in rhesus serum. Anti-ApoE antibody (Milipore, Cat No. AB947) is diluted 1:1000 in PBS and 100 uL of diluted antibody is added to each well of a polystyrene high binding plate. The plate with antibody is incubated overnight at 4° C., after which the plate is washed 2× with 200 uL of PBS. Next, 200 uL of buffer containing 1% BSA and 0.05% Tween-20 in PBS (Incubation Buffer) is added to each well followed by incubation at room temperature for 1 hour. Plates are washed 5× with PBS containing 0.05% Tween-20. Frozen Triton lysis test samples are thawed and diluted 1:6 with incubation buffer and 100 uL of test sample is aliquoted to wells of the ApoE antibody plate. Incubation is for 1 hour at room temperature followed by a 5× wash with PBS containing 0.05% Tween-20. After washing, 100 uL of biotinylated anti-ApoE antibody (Mabtech, Cat. ANo. E887-biotin), diluted 1:500 in incubation buffer, is added to each well and incubated for 1 hour at room temperature, followed by a 5× wash with 0.05% Tween-20 in PBS. 100 uL per well, of Streptavidin-HPR (Thermo, Cat. No. TS-125-HR), is then added and incubated for 1 hour at room temperature. After washing 5× with 0.05% Tween-20 in PBS, 100 uL of TMB Substrate (Thermo, Cat. No. 34028) is added to each well, followed by incubation at room temperature for 20 minutes in the dark. The calorimetric reaction is slopped with 100 uL of TMB Stop Solution (KPL, Cat. No. 50-85-04) and absorbance at 450 nm is determined. An ApoE standard curve is prepared by diluting rhesus Recombinant ApoE in incubation buffer with 0.03% Triton X-100 with concentrations ranging from 100 ng/mL to 0.78 ng/mL. ApoE standards are evaluated in the ELISA in parallel to the test samples. A rhesus serum only (no LNP) control is utilized to obtain a background subtraction for non-LNP dependent ApoE signal in the ELISA.\nTo normalize to the ApoE bound to the amount of LNP bound to the anti-PEG antibody plate, the amount of siRNA retained in the anti-PEG antibody well is quantitated by stem-loop PCR and related to the number of siRNAs encapsulated per LNP, to give an approximate measure of total LNP particles bound per well.\nThe standard curve is prepared using the molecular weight of the siRNA (13693 g/mol for ApoB 17063) to calculate the copy number. The high standard should contain 10^11 copies per 3 μl. A 10-fold serial dilution is performed across a row of an assay plate until the lowest standard contains 10^2 copies per 3 μl. Dilute 0.2% Triton X-100 1:80 in water and pipette 20 uL of the diluted Triton X-100 into 10 wells of a 96 well plate. 30 uL of the serial diluted standard curve and mix are added to each well of the plate. 10 uL of the spiked standard curve is used in the reverse transcription reaction.\nTriton lysates from the PEG antibody plate capture are diluted 1 to 2000 in nuclease free water. 10 uL of ‘RT-Primer Mix’ (Applied Biosystem's TaqMan MicroRNA Reverse Transcription Kit Cat. No. 4366596) is added to each well of a 96-well Micro-Amp QPCR plate (ABI Cat #N801-0560).\n[…] of each test sample (diluted 1 to 2000) or spiked standard curve (above) are aliquoted into the 96-well plate. […]", "units": {"ApoE Molecules/LNP": "Molecules/LNP"}, "values": [{"compound": "CCCCCCCC/C=C\\CCCCCCCCCC(CCCCCCCCC)N(C)C", "note": "(centres unmarked) [Compound 28, (20Z)—N,N-dimethylnonacos-20-en-10-amine]", "ApoE Molecules/LNP": 4.7}, {"compound": "CCCCCCCCCCCCCC/C=C\\CCCC(CCCCCCCCC)N(C)C", "note": "(centres unmarked) [Compound 25, (14Z)—N,N-dimethylnonacos-14-en-10-amine]", "ApoE Molecules/LNP": 13.7}, {"compound": "CCCCCCCCCCC/C=C\\CCCCC(CCCCCCCCC)N(C)C", "note": "(centres unmarked) [Compound 24, (15Z)—N,N-dimethylheptacos-15-en-10-amine]", "ApoE Molecules/LNP": 1.2}, {"compound": "CCCCC/C=C\\C/C=C\\CCCCCCCCC1(CCCCCCCC/C=C\\C/C=C\\CCCCC)OCC(CCN(C)C)O1", "note": "(centres unmarked) [Compound 45, DLinKC2DMA, reference compound]", "ApoE Molecules/LNP": 32.5}, {"compound": "CCCCC/C=C\\C/C=C\\CCCCCCCCCCCC(CCCCCCCC)N(C)C", "note": "(centres unmarked) [Compound 16, (21Z,24Z)—N,N-dimethyltriaconta-21,24-dien-9-amine]", "ApoE Molecules/LNP": 3.3}, {"compound": "CCCCC/C=C\\C/C=C\\CCCCCCCC(CCCCCCCCC)N(C)C", "note": "(centres unmarked) [Compound 8, (18Z,21Z)—N,N-dimethylheptacosa-18,21-dien-10-amine]", "ApoE Molecules/LNP": 4.9}, {"compound": "CCCCCCCC/C=C\\CCCCCCCCCCCC(CCCCCCCCC)N(C)C", "note": "(centres unmarked) [Compound 29, (22Z)—N,N-dimethylhentriacont-22-en-10-amine]", "ApoE Molecules/LNP": 38}, {"compound": "CCCCCCCCCC(CCCCCCCCC[C@H]1C[C@H]1CCCCCC)N(C)C", "note": "(stereo partly drawn) [Compound 34, 1-[(1S,2R)-2-hexylcyclopropyl]-N,N-dimethylnonadecan-10-amine]", "ApoE Molecules/LNP": 2.3}]}, {"test_system": "mRNA transcript for the firefly (Photinus pyralis) luciferase gene", "test": "Mouse in vivo evaluation of efficacy (luciferase siRNA LNPs, liver luminescence)", "settings": "Luc siRNA RDV, tail vein, 48 hours post dose, FIG. 1", "method": "LNPs utilizing Compounds 1-44, in the nominal compositions described immediately above, were evaluated for in vivo efficacy. The siRNA targets the mRNA transcript for the firefly (Photinus pyralis) luciferase gene (Accession #M15077). […] The in vivo luciferase model employs a transgenic mouse in which the firefly luciferase coding sequence is present in all cells. ROSA26-LoxP-Stop-LoxP-Luc (LSL-Luc) transgenic mice licensed from the Dana Farber Cancer Institute are induced to express the Luciferase gene by first removing the LSL sequence with a recombinant Ad-Cre virus (Vector Biolabs). Due to the organo-tropic nature of the virus, expression is limited to the liver when delivered via tail vein injection. Luciferase expression levels in liver are quantitated by measuring light output, using an IVIS imager (Xenogen) following administration of the luciferin substrate (Caliper Life Sciences). Pre-dose luminescence levels are measured prior to administration of the RDVs. Luciferin in PBS (15 mg/mL) is intraperitoneally (IP) injected in a volume of 150 μL. After a four minute incubation period mice are anesthetized with isoflurane and placed in the IVIS imager. The RDVs (containing siRNA) in PBS vehicle were tail vein injected in a volume of 0.2 mL. […] In vivo efficacy results are expressed as % inhibition of luminescence relative to pre-dose luminescence levels. […]", "values": [{"compound": "CCCCC/C=C\\C/C=C\\CCCCCCCCCC(CCCCCCCCC)N(C)C", "note": "(centres unmarked) [Compound 1, (20Z,23Z)—N,N-dimethylnonacosa-20,23-dien-10-amine]", "efficacy (% inhibition of luminescence) compared with RDV containing octyl-CLinDMA (OCD)": "Greater efficacy"}]}]}
